Results reported in patent EP2777394A1, “Agricultural adjuvant composition and process for its obtainment” (SC Teso Spec SRL, priority 2012, dated 2014).

Key:
Format in all cases: in vivo
[1] = test system: leafminers flies, Liriomyza trifolii (Burgess); experiment: Field test of spinosad with or without adjuvant A3 against leafminer larvae on muskmelon; details: per sampled leaf, 3 days after treatment, acetamipirid 0.025%, spinosad 0.05%, adjuvant A3 0.4%
Protocol: Example 10. The effect of adjuvant A3, obtained according to Example 5, was tested to determine whether its addition improve the activity of spinosad against leafminers flies, Liriomyza trifolii (Burgess). Spinosad is a metabolite produced by biosynthetic process by the actinomycetes Saccharopolyspora spinosa, and provides excellent crop protection with a relatively low toxicity to non-target organisms, including many beneficial insects. For that reason spinosad is accepted on organic farming systems. […] Addition of the spraying adjuvant increase the efficacy of spinosad based insecticide in controlling leafminers larvae (Larson, 1997, Arthrop. Manag. Test. 22:415-416).
The experiment was done on the Fundulea experimental field, which characteristics were already presented in Example 6. The muskmelon (Cucumis melo L., cv. Charentais) experimental plots were established on 19th of April, 2012, using 25 days old transplants, on a density equivalent to 12.000 transplants per ha. The experimental filed where experiment was plotted was previously cultivated with corn and was fertilized with 200 kg/ha equivalent complex fertilizer NPK 15:15:15 (Azomure ? ), on beginning of March. Herbicidation was done by application on the whole surface of a dose of 4 l/ha Stomp 330 EC, sprayed in a mixture with 450 l water per ha, 10 days before transplantation, and incorporated in soil with a by harrowing with a disc harrow.
Plots of 20 m^2 were made with edges of two untreated rows, in random blocks, with 4 repetitions on each treatment. Application of treatments were done with a backpack sprayer SG10 (Stihl AG, Waiblingen, Germany), by spraying from 40 cm, with a spraying pressure set-up to 275 kPa, using a nozzle with flat jet and low drift (TeeJett® flat-fan TT11002 model, Spraying Systems Co., Wheaton, IL, USA). Were applied […], one in the phenophase of 3...4 leaves and in the phenophase 6...8 leaves, as a second treatment. In phenophase 3...4 leaves, one day after the treatment with insecticide, was applied also a treatment with Previcur 607 SL (propamocarb 607 g/l) for controlling the downy mildew (Pseudoperonospora cubensis), on the whole area of the experiment. The experimental treatments were: • V1 - control, untreated for Liriomyza trifolii; • V2 - acetamipirid 0.025% (Mospilan 20 SG, 200 g/kg acetamipirid, Nippon Soda Company, Tokio, Japonia), equivalent 0.1 kg/ha in a spraying norm of 400 l/ha, considered as standard for treatment of leafminers flies larvae because is a systemic insecticide; • V3 - spinosad 0.05% (Laser 240 SC, 240 g/l spinosad, Dow AgroSciences, Indianapolis, USA), equivalent 0.2 kg/ha at a spraying norm of 400 l/ha; • V4 - spinosad 0.05% (Laser 240 SC, 240 g/l spinosad, Dow AgroSciences, Indianapolis, USA), equivalent 0.2 kg/ha at a spraying norm of 400 l/ha + adjuvant A3, according to Example 5, 0.4%, equiv. to 1.6 kg at a spraying norm of 400 l/ha.
The impact of each treatment on leafminer larvae mortality was estimated by counting the number of live and dead / paralyzed larvae, and also of the empty and total mines per each sampled leaf. A total of 10 leaves per experimental plot were collected at 3 days after treatment and examined in the laboratory for presence of mines in leaves and larvae status in the mines. The data were processed by analysis of variance (Statistica 10, StatSoft). Tab. 11.The influence of spray adjuvant A3 on the efficacy of spinosad in controlling the leafminers larvae on muskmelon.

[2] = test system: winter wheat (Triticum aestivum L.), cultivar Capo; experiment: Selenium biofortification of wheat grains by foliar sodium selenite, with or without adjuvant A1.2 (field experiment); details: 300 l/ha; for Selenium content in the wheat grains (mcg/kg): applied at GS31; for Yield (kg/ha): yield with 86% dry matter
Source text: Example 7. On the experimental field from Fundulea was done also an experiment in order to establish the effect of adjuvant A1.2 on the biofortification treatment with sodium selenite applied as foliar fertilizers on wheat. Se (IV) from the sodium selenite is a selenium species which are not translocated from the radicular system into the foliar one through xylem (Zhu et al., 2009, Trends Plant Sci. 14:436-442), thus an eventually biofortification of the wheat yield resulted from the treatment with selenite is the result of the selenite absorbed through cuticle and not of that absorbed by radicular system after leakage on soil. The soil on which was done the experiment has the characteristics presented in the above tab. 6, and the total selenium content (HF + HNO3 + HCl) is 0.197 mg/kg.
The experiment was done of experimental plots of 25 m^2, with winter wheat (Triticum aestivum L.), cultivar Capo, cultivated in similar conditions with those already presented in Example 6 regarding the agrotechnics, base fertilization before seeding and crop protection. The experiment was done in random blocks in a Latin square, 4 treatments in 4 repetitions. The 4 treatments were: • V1 - control, treated with water, • V2 - sprayed with a solution of sodium selenite pentahidrate, Na2SeO3.5 H2O, 0.0111%, equiv. 10 g Se/ha for a spraying norm of 300 l/ha; • V3 - sprayed with a solution of sodium selenite pentahidrate, Na2SeO3.5 H2O, 0.0222%, equiv. 20 g Se/ha for a spraying norm of 300 l/ha; • V4 - sprayed with a solution of sodium selenite pentahidrate, Na2SeO3.5 H2O, 0.0111 %, equiv. 10 g Se/ha for a spraying norm of 300 l/ha and 0.5% spraying adjuvant A1.2 Ex.2, equivalent to a dose of 1.5 kg/ha.
Application of the solutions was done with a backpack sprayer SG10 (Stihl AG, Waiblingen, Germany), by spraying from 40 cm, with a spraying pressure set-up to 275 kPa, using a nozzle with flat jet and low drift (TeeJett® flat-fan TT11002 model, Spraying Systems Co., Wheaton, IL, USA). The treatments were applied during the growth stages GS31 (5th April 2012). On the end of the vegetation season each repetition was separately harvested, the realized production being expressed in kg/ha with 86% dry matter. In the wheat grain selenium was determined, by atomic absorption spectrophotometry with hydride generation (Tinggi et al., 1992, J. Food Comp. Anal. 5, 269-280). The date were analyzed by application of the linear general model, to determine the average values and the significance differences at a probability level of 5% (Statistica 10, StatSoft, Tulsa, OK, US). Tab. 8. Influence of the adjuvant A1.2 done according to the invention on the biofortification treatment of wheat grains (cv. Capo) with selenium.

[3] = test system: Tomato plants (Lycopersicum esculentum cv. Cristal F1); experiment: Protection of tomato plants against water stress by foliar glycine-betaine, with or without adjuvant A2 (greenhouse)
Protocol: Example 9. It was tested the efficacy of adjuvant A2, obtained according to Ex.4 on the performances of glycine-betaine, compound with an osmoprotectant action, regarding the protection of tomato plants against water stress. Glycine - betaine presents a molecule with quaternary nitrogen, strongly polar, with a reduced penetrability on the hydrophobic plant cuticle.
Tomato plants (Lycopersicum esculentum cv. Cristal F1), transplants of 60 days, were re-potted in vegetation pots of 25 cm dia. and 50 cm height, on which was introduced a synthetic grown substrate enriched with nutrients for the first week of plant growth (Canna Terra Professional Plus, Canna International BV). The vegetation pots were maintained in greenhouse conditions, at 22±2°C during the day and 17±2°C during the night, with a photoperiod of 12 hours, supplemented with light with an intensity of 160 µE/m^2/s, from a metal halide lamp, when the light intensity was below 500 µE/m^2/s. […] The grown substrate contained initial nutrient reserves, thus the plants were fertilized only one time, at 28 days after transplantation, by the application of 100 ml of nutritive solution 1 g/l of fertilizer 20 - 8 - 20 (N-P2O5-K2O, Eurofertil, TimacAgro Romania). The experiment was organized in a random bloc with 4 repetitions for each treatment, each repetition including 5 plants. It was used purified glycine-betaine (99%, Sigma Aldrich, St. Louis, Mo, US). The experimental treatments included also controls, sprayed only with water, water stress control and unstressed control. These experimental treatments were: • V1 - control unstressed, sprayed with water; 2 treatments x 2 ml per plant, equivalent 100 l/ha; • V2 - control water stressed, sprayed with water; 2 treatments x 2 ml per plant, equivalent 100 l/ha; • V3 - water stressed, sprayed with glycine-betaine; 2 treatments x 2 ml 5 mM per plant, equivalent 58,5 g in 100l/ha; […]; […]; • V5 - water stressed, sprayed with glycine -betaine and adjuvant, 2 treatments x 2 ml solution 5 mM betaine + 1% adjuvant A2 per plant, equivalent 58,5 g betaine and 1 kg adjuvant A2 in 100l/ha.
Treatments were applied in the 2nd and 29th day after transplantation, by spraying each plant with the help of a glass atomizer with metal top and plastisol bulb (model 15-RD, DeVilbiss Healthcare, Somerset, PA, USA). The unstressed control was irrigated once every five day at 100% field capacity, and the water stressed plants were irrigated each two weeks at 100% field capacity. […] The data were processed by analysis of variance (Statistica 10, StatSoft).

[4] = test system: common cocklebur (Xanthium strumarium); experiment: Greenhouse test of adjuvants on nicosulfuron efficacy, common cocklebur; details: nicosulfuron 50 g/ha, without adjuvant, Trend 90 0,1% or soybean oil methylate 1%
Protocol: (§1) Example 8. The basic adjuvant A1.3 was tested on greenhouse conditions in order to verify its effect on the performance increase of nicosulfuron, herbicide representative for the category of weakly acid herbicides from the sulfonylurea class, which solubility in water is increased on high pH. The used test plants were common cocklebur (Xanthium strumarium), dicotyledonous weed, and large crabgrass (Digitaria sanguinalis), monocotyledonous weed. The common cocklebur was sown on approx. 2 cm deep, in plastic pots of 15 cm diameter, and after emergence was thinned to only 2 plants. The large crabgrass was planted in the same type of plastic pots, at 1 cm deep, and after emergence was thinned to a cluster of around 15 plants. The pots contain a synthetic grown substrate enriched with nutrients for the first week of plant growth ([…] Professional Plus, Canna International BV, Oosterhout, Netherlands), and consequently were not applied fertilizers. […] At three weeks after the treatment it was determined the fresh weight of plants on each repetition by weighting and was estimated the phytotoxicity, using a scale from 0% (without visible symptoms) to 100% (plant completely destroyed). […]

[5] = test system: large crabgrass (Digitaria sanguinalis); experiment: Greenhouse test of adjuvants on nicosulfuron efficacy, large crabgrass; details: nicosulfuron 50 g/ha, without adjuvant, Trend 90 0,1% or soybean oil methylate 1%
Protocol: as §1

[6] = V3 water stressed, 2x 5 mM equiv. 58,5 g in 100 l/ha
[7] = V3 water stressed, 2x 5 mM equiv. 58,5 g in 100 l/ha, 8 weeks after transplantation
[8] = fresh weight three weeks after treatment
[9] = three weeks after treatment, scale 0-100%

C/C(=N\C#N)N(C)Cc1ccc(Cl)nc1 [Acetamipirid, acetamipirid]
Dead larvae ([1]; First treatment): 0.1c
Empty mines ([1]; First treatment): 0c
Mines total ([1]; First treatment): 0.4a
Mines with live larvae ([1]; First treatment): 0.1c
Dead larvae ([1]; Second treatment): 0.3c
Empty mines ([1]; Second treatment): 0b
Mines total ([1]; Second treatment): 0.2a
Mines with live larvae ([1]; Second treatment): 0b

O=[Se](O)O [Na2SeO3.5 H2O, sodium selenite pentahidrate]
Selenium content in the wheat grains (mcg/kg) ([2]; equiv. 10 g Se/ha): 105b mcg/kg
Yield (kg/ha) ([2]; equiv. 10 g Se/ha): 4958a kg/ha
Selenium content in the wheat grains (mcg/kg) ([2]; equiv. 20 g Se/ha): 142a mcg/kg
Yield (kg/ha) ([2]; equiv. 20 g Se/ha): 4549b kg/ha

C[N+](C)(C)CC(=O)O [glycine-betaine]
Leaves surfaces (mm^2) [3, 6]: 587.58±4.92ab mm^2
Number of Leaves [3, 6]: 28.00±2.1b
Plant height (cm) [3, 7]: 47.30±3.42c cm
Root length (cm) [3, 7]: 45.50±2.39b cm
Average yield** (g ripened fruits / plant) ([3]; V3 water stressed, 2x 5 mM equiv. 58,5 g in 100 l/ha, production for 30 days cycle of flowering - fructification): 223±28.2b g ripened fruits / plant
Leaves surfaces (mm^2) ([3]; V4 water stressed, 2x 5 mM equiv. 117 g in 100 l/ha): 663.16±5.84a mm^2
Root length (cm) ([3]; V4 water stressed, 2x 5 mM equiv. 117 g in 100 l/ha, 8 weeks after transplantation): 54.80±1.88b cm

COc1cc(OC)nc(NC(=O)NS(=O)(=O)c2ncccc2C(=O)N(C)C)n1 [nicosulfuron]
Mass reduction (% control) [4, 8]: 59c % control
Phytotoxicity (%) [4, 9]: 33c %
Mass reduction (% control) [5, 8]: 52c % control
Phytotoxicity (%) [5, 9]: 40c %

spinosad
Dead larvae ([1]; First treatment): 1.8b
Empty mines ([1]; First treatment): 3.3b
Mines total ([1]; First treatment): 8.2b
Mines with live larvae ([1]; First treatment): 1.2b
Dead larvae ([1]; Second treatment): 3.1a
Empty mines ([1]; Second treatment): 2.7a
Mines total ([1]; Second treatment): 6.8b
Mines with live larvae ([1]; Second treatment): 0.3a
